According to US10550143B2, “C,O-spiro aryl glycoside compounds, preparation therefor and use thereof” (SHANGHAI INSTITUTE OF MATERIA MEDICA, CHINESE ACADEMY OF …, priority 2015, dated 2020):

Target: T1, human sodium-glucose cotransporter 2 (SGLT2) (Homo sapiens, UniProt P31639)
T1 construct: expressed in transfected cells; host or cells: NIH3T3 (mouse fibroblast) cells expressing hSGLT2
T1 sequence (P31639 1-672): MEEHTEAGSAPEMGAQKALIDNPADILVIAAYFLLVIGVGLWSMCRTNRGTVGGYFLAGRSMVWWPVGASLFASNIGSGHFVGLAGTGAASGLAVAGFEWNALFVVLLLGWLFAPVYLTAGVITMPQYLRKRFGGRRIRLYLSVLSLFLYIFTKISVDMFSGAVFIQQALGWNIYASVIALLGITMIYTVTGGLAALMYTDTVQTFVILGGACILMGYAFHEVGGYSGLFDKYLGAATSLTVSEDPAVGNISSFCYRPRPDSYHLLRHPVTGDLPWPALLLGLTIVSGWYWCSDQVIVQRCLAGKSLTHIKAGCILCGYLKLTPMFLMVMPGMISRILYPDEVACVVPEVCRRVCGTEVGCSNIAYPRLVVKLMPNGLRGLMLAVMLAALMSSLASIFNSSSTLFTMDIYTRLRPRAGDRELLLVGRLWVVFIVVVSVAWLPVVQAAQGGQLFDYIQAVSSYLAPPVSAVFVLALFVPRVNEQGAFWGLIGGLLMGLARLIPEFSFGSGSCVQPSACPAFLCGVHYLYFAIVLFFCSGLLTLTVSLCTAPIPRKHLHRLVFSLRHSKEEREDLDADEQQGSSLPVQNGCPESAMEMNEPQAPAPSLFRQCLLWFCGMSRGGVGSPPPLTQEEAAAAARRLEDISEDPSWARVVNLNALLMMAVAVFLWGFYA
Assay: In vitro SGLT2 inhibition, methyl-α-D-[U-14C]glucopyranoside uptake in NIH3T3-hSGLT2 cells
Type: cell-based
Settings: for inhibition at 0.01 µM: SGLT2, 10 nM, read-out: % Inhibition rate ± SD 10 nM; for inhibition at 0.1 µM: SGLT2, 100 nM, read-out: % Inhibition rate ± SD 100 nM
Procedure: Inhibition of the compounds of formula I against human sodium-glucose cotransporter 2 (SGLT2) was determined experimentally and the experimental procedures were carried out as reference^1.
Methyl-α-D-[U-^14C] glucopyranoside (Perkin Elmer) Dimethylsulfoxide (Genebase, Prod No: 0231)
(1) Primary screening of hSGLT2 are conducted with two concentrations, 100 nM and 10 nM;
SGLT2 transports D-glucose at 1:1 sodium-glucose ratio, glucose is replaced by the non-metabolic and isotope labeled methyl-aD-[U-^14C] glucopyranoside and methyl-aD-glucopyranoside, and the amount of isotope transferred into the cells was determined.
1) 0.2% gelatin in a 96-well plate was put in a 37° C. incubator for further use;
2) NIH3T3-hSGLT2 cells were injected into 96-well plates, 40000/well, and 100 μL culture medium per well:
3) the fluid was changed in the next day, and sodium butyrate was added into medium at a final concentration of 2 mM;
4) wash the cells with 100 μL of KRH—Na^+ for 3 times and incubate cells with 50 μL for 30 minutes. Cells were changed to 50 μL of compound in KRH—Na^+, uptake buffer (KRH—Na^+ and methyl-α-D-[U-^14C]glucopyranoside and ⅙ mM methyl-α-D-glucopyranoside at 10 μL per well) was added; KRH-acetylcholine solution was used as background control instead of KRH-Na^+
5) washed with 100 μL PBS for 3 times, dried, 50 μL lysate and 150 μL scintillation fluid were added, the membrane was covered and flattened, shaken on a shaker to mix thoroughly, centrifuged at 1500 rpm at 4° C. for 3 min, taken out and read;
6) the results were analyses.
The inhibition rate (% Inhibiton) of each sample at each concentration was calculated by dividing the value of the compound well value minus the background value by the value of the DMSO control well value minus the background value.
IC50 is calculated as follows: […]
The y value is the activity or inhibition percent, the x value is the concentration of the corresponding compound, top (the maximum y value of the curve), bottom (the minimum y value of the curve).

Row | Structure (SMILES) | inhibition at 0.01 µM [%] | inhibition at 0.1 µM [%] | IC50 (read-out: IC50 ± SD SGLT2) [nM]
1 | C[C@H]1O[C@]2(OCc3ccc(Cc4ccc(-c5ccc(F)cc5)s4)cc32)[C@H](O)[C@@H](O)[C@@H]1O [Example A11, (1S,3′R,4′S,5′S,6′R)-6′-methyl-6-((5-(4-fluorophenyl)thienyl)-2-methyl)-3′,4′,5′,6′-tetrahydro-3H-spiro[isobenzofuran-1,2′-pyran]-3′,4′,5′-triol] | 29.4 ± 11.1 | 31.4 ± 8.1 | 
2 | C[C@H]1O[C@]2(OCc3ccc(Cc4ccc(-c5ccccc5)s4)cc32)[C@H](O)[C@@H](O)[C@@H]1O [Example A12, (1S,3′R,4′S,5′S,6′R)-6′-methyl-6-((5-phenylthienyl)-2-methyl)-3′,4′,5′,6′-tetrahydro-3H-spiro [isobenzofuran-1,2′-pyran]-3′,4′,5′-triol] | 20.4 ± 28.4 | 49.1 ± 20 | 
3 | C[C@H]1O[C@]2(OCc3ccc(Cc4ccc(-c5ccccn5)s4)cc32)[C@H](O)[C@@H](O)[C@@H]1O [Example A13, (1S,3′R,4′S,5′S,6′R)-6′-methyl-6-((5-(2-pyridyl)thienyl)-2-methyl)-3′,4′,5′,6′-tetrahydro-3H-spiro[isobenzofuran-1,2′-pyran]-3′,4′,5′-triol] | 31 ± 30.5 | 46.9 ± 8.6 | 
4 | C[C@H]1O[C@]2(OCc3ccc(Cc4cc5ccccc5s4)cc32)[C@H](O)[C@@H](O)[C@@H]1O [Example A15, (1S,3′R,4′S,5′S,6′R)-6′-methyl-6-(benzo[b]thiophene-2-methyl)-3′,4′,5′,6′-tetrahydro-3H-spiro[isobenzofuran-1,2′-pyran]-3′,4′,5′-triol] | 46.9 ± 4 | 50.8 ± 4.4 | 
5 | C[C@H]1O[C@]2(OCc3ccc(Cc4cc5ccccc5o4)cc32)[C@H](O)[C@@H](O)[C@@H]1O [Example A16, (1S,3′R,4′S,5′S,6′R)-6′-methyl-6-(benzo[b]furan-2-methyl)-3′,4′,5′,6′-tetrahydro-3H-spiro [isobenzofuran-1,2′-pyran]-3′,4′,5′-triol] | 27.5 ± 19.6 | 39 ± 16.1 | 
6 | COc1ccc(Cc2cc3c(cc2Cl)CO[C@]32O[C@H](C)[C@@H](O)[C@H](O)[C@H]2O)cc1 [Example A25, (1S,3′R,4′S,5′S,6′R)-6′-methyl-6-(4-methoxybenzyl)-5-chloro-3′,4′,5′,6′-tetrahydro-3H-spiro[isobenzofuran-1,2′-pyran]-3′,4′,5′-triol] | 91.8 ± 5.1 | 101 ± 2.2 | 
7 | C[C@H]1O[C@]2(OCc3cc(Cl)c(Cc4ccc(-c5ccccn5)s4)cc32)[C@H](O)[C@@H](O)[C@@H]1O [Example A33] | 25 ± 9.3 | 20.7 ± 7.5 | 
8 | C[C@H]1O[C@]2(OCc3cc(F)c(Cc4ccc(-c5ccccn5)s4)cc32)[C@H](O)[C@@H](O)[C@@H]1O [Example A46, (1S,3′R,4′S,5′S,6′R)-6′-methyl-6-((5-(2-pyridyl)thienyl)-2-methyl)-5-fluoro-3′,4′,5′,6′-tetrahydro-3H-spiro[isobenzofuran-1,2′-pyran]-3′,4′,5′-triol] | 16 ± 14.8 | 63.6 ± 2.4 | 
9 | C[C@H]1O[C@]2(OCc3cc(F)c(Cc4cc5ccccc5s4)cc32)[C@H](O)[C@@H](O)[C@@H]1O [Example A47, (1S,3′R,4′S,5′S,6′R)-6′-methyl-6-(benzo[b]thiophene-2-methyl)-5-fluoro-3,4′,5′,6′-tetrahydro-3H-spiro [isobenzofuran-1,2′-pyran]-3′,4′,5′-triol] | 19.4 ± 0.5 | 50.2 ± 10.8 | 
10 | C[C@H]1O[C@]2(OCc3cc(F)c(Cc4cc5ccccc5o4)cc32)[C@H](O)[C@@H](O)[C@@H]1O [Example A48, (1S,3′R,4′S,5′S,6′R)-6′-methyl-6-(benzo[b]furan-2-methyl)-5-fluoro-3′,4′,5′,6′-tetrahydro-3H-spiro[isobenzofuran-1,2′-pyran]-3′,4′,5′-triol] | 13.1 ± 8.4 | 33.2 ± 10.1 | 

The next lines start with the values.

Row | inhibition at 0.01 µM [%] | inhibition at 0.1 µM [%] | IC50 (read-out: IC50 ± SD SGLT2) [nM] | Structure (SMILES)
11 | 21.2 ± 14.4 | 26.9 ± 9.1 |  | Cc1ccc(Cc2ccc3c(c2)[C@]2(OC3)O[C@H](C)[C@@H](O)[C@H](O)[C@H]2O)cc1 [Example A1, (1S,3′R,4′S,5′S,6′R)-6′-methyl-6-(4-methylbenzyl)-3′,4′,5′,6′-tetrahydro-3H-spiro[isobenzofuran-1,2′-pyran]-3′,4′,5′-triol]
12 | 23.1 ± 18.5 | 31 ± 9.7 |  | CCCc1ccc(Cc2ccc3c(c2)[C@]2(OC3)O[C@H](C)[C@@H](O)[C@H](O)[C@H]2O)cc1 [Example A3, (1S,3′R,4′S,5′S,6′R)-6′-methyl-6-(4-propylbenzyl)-3′,4′,5′,6′-tetrahydro-3H-spiro[isobenzofuran-1,2′-pyran]-3′,4′,5′-triol]
13 | 34.1 ± 23.6 | 42.2 ± 3.5 |  | CC(C)c1ccc(Cc2ccc3c(c2)[C@]2(OC3)O[C@H](C)[C@@H](O)[C@H](O)[C@H]2O)cc1 [Example A4, (1S,3′R,4′S,5′S,6′R)-6′-methyl-6-(4-isopropylbenzyl)-3′,4′,5′,6′-tetrahydro-3H-spiro[isobenzofuran-1,2′-pyran]-3′,4′,5′-triol]
14 | 26 ± 14 | 28.9 ± 7.2 |  | COc1ccc(Cc2ccc3c(c2)[C@]2(OC3)O[C@H](C)[C@@H](O)[C@H](O)[C@H]2O)cc1 [Example A5, (1S,3′R,4′S,5′S,6′R)-6′-methyl-6-(4-methoxybenzyl)-3′,4′,5′,6′-tetrahydro-3H-spiro[isobenzofuran-1,2′-pyran]-3′,4′,5′-triol]
15 | 27 ± 15.7 | 27.6 ± 3.1 |  | CCOc1ccc(Cc2ccc3c(c2)[C@]2(OC3)O[C@H](C)[C@@H](O)[C@H](O)[C@H]2O)cc1 [Example A6, (1S,3′R,4′S,5′S,6′R)-6′-methyl-6-(4-ethyoxylbenzyl)-3′,4′,5′,6′-tetrahydro-3H-spiro[isobenzofuran-1,2′-pyran]-3′,4′,5′-triol]
16 | 15.7 ± 25.2 | 27.9 ± 1.9 |  | Cc1ccc(Cc2ccc3c(c2)[C@]2(OC3)O[C@H](C)[C@@H](O)[C@H](O)[C@H]2O)s1 [Example A7, (1S,3′R,4′S,5′S,6′R)-6′-methyl-6-((5-methylthienyl)-2-methyl)-3′,4′,5′,6′-tetrahydro-3H-spiro [isobenzofuran-1,2′-pyran]-3′,4′,5′-triol]
17 | 30.4 ± 4.8 | 59.1 ± 5.3 | 285 ± 117 | CCc1ccc(Cc2ccc3c(c2)[C@]2(OC3)O[C@H](C)[C@@H](O)[C@H](O)[C@H]2O)s1 [Example A8, (1S,3′R,4′S,5′S,6′R)-6′-methyl-6-((5-ethylthienyl)-2-methyl)-3′,4′,5′,6′-tetrahydro-3H-spiro [isobenzofuran-1,2′-pyran]-3′,4′,5′-triol]
18 | 34.7 ± 24 | 52.8 ± 15.5 |  | CCCc1ccc(Cc2ccc3c(c2)[C@]2(OC3)O[C@H](C)[C@@H](O)[C@H](O)[C@H]2O)s1 [Example A9, (1S,3′R,4′S,5′S,6′R)-6′-methyl-6-((5-propylthienyl)-2-methyl)-3′,4′,5′,6′-tetrahydro-3H-spiro [isobenzofuran-1,2′-pyran]-3′,4′,5′-triol]
19 | 28.1 ± 25.8 | 45.8 ± 10.2 |  | C[C@H]1O[C@]2(OCc3ccc(Cc4ccc(Cl)s4)cc32)[C@H](O)[C@@H](O)[C@@H]1O [Example A10, (1S,3′R,4′S,5′S,6′R)-6′-methyl-6-((5-chlorothienyl)-2-methyl)-3′,4′,5′,6′-tetrahydro-3H-spiro [isobenzofuran-1,2′-pyran]-3′,4′,5′-triol]
20 | 25.8 ± 15 | 55.8 ± 13.2 |  | C[C@H]1O[C@]2(OCc3ccc(Cc4ccc5ccccc5c4)cc32)[C@H](O)[C@@H](O)[C@@H]1O [Example A14, (1S,3′R,4′S,5′S,6′R)-6′-methyl-6-(naphthyl-2-methyl)-3′,4′,5′,6′-tetrahydro-3H-spiro [isobenzofuran-1,2′-pyran]-3′,4′,5′-triol]
